In paper PMC11695783 (Frontiers in Pharmacology, 2024):
Several values for one entry are separate records, joined by “and”; a condition that tells them apart may be missing. Equal entries are not always repeated.

What was measured:
Mycoplasma pneumoniae = experiment: In vivo pharmacodynamic study: Mycoplasma pneumoniae loads in BALF of infected mice; parameters: species or system BALB/c mice; settings: for MPcounts in BALF (AV): group AV; for MPcounts in BALF: individual mice
Description: (§1) Adult BALB/c mice (20–22 g) were divided into a control group, a positive group, and compound 16C groups at low (20 mg/kg), medium (40 mg/kg), and high-dose (80 mg/kg) levels and oral and intramuscular tiamulin treatment groups (40 mg/kg). We formulated the above dose range based on the dose at which tiamulin was approved for injection (10–20 mg/kg) and the dose previously reported (45 mg/kg) ([EMA, 1999]; [Xiao et al., 2016]). In summary, we selected similar doses for compound 16C in vivo study. 40 mg/kg was used as an intermediate value, one-half of it as a low dose, and two times of it as a high dose. To prepare the challenge solution, logarithmic phase culture suspensions were centrifuged at 1700 g for 10 min, and the pellets were suspended in sterile PBS to obtain 1 × 10^9 CFU/mL. Before the challenge, mice were anesthetized with tribromoethanol (250 mg/kg, IP). Mice in the control groups were intratracheally inoculated with sterile PBS, whereas mice in the other groups were intratracheally challenged with 50 μL (1 × 10^9 CFU/mL) M. pneumoniae suspension once a day for 3 days. Compound 16C and tiamulin (tiamulin-IM group) dissolved using the method mentioned in pharmacokinetic studies, and the tiamulin fumarate soluble powder was dissolved in ddH2O for oral administration. After the final challenge, antibiotics were administered at low, medium, and high-dose levels (see above) at 10 a.m. and 10 p.m. daily for 4 consecutive days. Normal saline containing 5% DMSO and 5% Tween-80 was administered as control and positive groups by thigh intramuscular injection. To compare the efficacy of compound 16C and tiamulin under the same route of administration, we used the original tiamulin for intramuscular administration in the same formulation. On the other hand, tiamulin fumarate soluble powder, approved for oral administration to treat animal mycoplasma diseases in China, was administered to mice by gavage. Based on a clinical study of lefamulin in community-acquired bacterial pneumonia (CABP), subjects were administered twice a day and the 96 ± 24 h of starting treatment was an essential point for early clinical response (ECR) ([Paukner et al., 2022]). We therefore stopped treatment at 96 h and sampled at 192 h to explore whether the disease worsened after cessation of treatment. Bronchoalveolar lavage fluid (BALF) and lungs were collected at 0, 96, 192 h (Samples of 0 h were collected before starting treatment, and mice were fed ad libitum without drug treatment during 96–192 h) after the first dose, BALF for cytokine and cytological analysis and lung for histopathological evaluation.
(§2) Bronchoalveolar lavage was performed according to a standardized method ([Van Hoecke et al., 2017]). BALF was obtained following infusion of 0.5 mL PBS via tracheal cannulation into the lung twice (total 1 mL), and 200 µL was used for mycoplasma counts. The remaining BALF was centrifuged at 300 g for 10 min to separate the debris. The supernatants were stored at −80°C, and the debris was resuspended in the same volume of PBS containing red blood cell lysis buffer. A hemocytometer was used to count total cell numbers in BALF, and cell smears (Diff-Quik staining) were prepared to calculate the percentages of neutrophils, macrophages, and lymphocytes. IFN-γ, TNF-α, and CXCL1 levels in BALF samples were assessed using commercial ELISA kits using guidelines recommended by the manufacturer (Elabscience, Wuhan, China). Parallel data for each experimental group at each time point were obtained from six different mice.

IFN-γ = IFN-γ in BALF of M. pneumoniae-infected mice (ELISA); assay type: in vivo, BALB/c mice; settings: for IFN-γ in BALF (AV): group AV; for IFN-γ in BALF: individual mice
Description: as §1, §2

[1] = tested on: inflammatory cells in BALF (neutrophils, macrophages, lymphocytes); experiment: Inflammatory cell analysis in BALF of M. pneumoniae-infected mice; assay type: in vivo, BALB/c mice
Description: as §1, §2

[2] = compound 16C 20 mg/kg IM, 192 h
[3] = compound 16C 40 mg/kg IM, 192 h
[4] = compound 16C 80 mg/kg IM, 192 h

## C=CC1(C)CC(OC(=O)CSc2ccc(NC(=O)Cc3ccc([N+](=O)[O-])cc3)cc2)C2(C)C(C)CCC3(CCC(=O)C32)C(C)C1O (stereo not drawn) [compound 16C, 22–((4-((4-nitrophenyl)acetamido)phenyl)thio)deoxypleuromutilin]
Mycoplasma pneumoniae; compound 16C 20 mg/kg IM twice daily 4 d, 96 h
  microbial reduction in BALF: 1.40 log10 CFU/mL
Mycoplasma pneumoniae; compound 16C 20 mg/kg IM, 96 h
  MPcounts in BALF (AV): 4.601 Log10CFU/mL
  MPcounts in BALF: 5.04 Log10CFU/mL and 4.682 Log10CFU/mL and 3.8451 Log10CFU/mL and 4.709 Log10CFU/mL and 4.293 Log10CFU/mL and 5.039 Log10CFU/mL
Mycoplasma pneumoniae; [2]
  MPcounts in BALF (AV): 3.598 Log10CFU/mL
  MPcounts in BALF: 3.747 Log10CFU/mL and 3.757 Log10CFU/mL and 3.482 Log10CFU/mL and 3.599 Log10CFU/mL and 3.64 Log10CFU/mL and 3.366 Log10CFU/mL
Mycoplasma pneumoniae; compound 16C 40 mg/kg IM twice daily 4 d, 96 h
  microbial reduction in BALF: 2.02 log10 CFU/mL
Mycoplasma pneumoniae; compound 16C 40 mg/kg IM, 96 h
  MPcounts in BALF (AV): 3.896 Log10CFU/mL
  MPcounts in BALF: 4.213 Log10CFU/mL and 4.174 Log10CFU/mL and 3.6574 Log10CFU/mL and 4.285 Log10CFU/mL and 3.708 Log10CFU/mL and 3.341 Log10CFU/mL
Mycoplasma pneumoniae; [3]
  MPcounts in BALF (AV): 3.662 Log10CFU/mL
  MPcounts in BALF: 3.675 Log10CFU/mL and 3.607 Log10CFU/mL and 3.633 Log10CFU/mL and 3.784 Log10CFU/mL and 3.322 Log10CFU/mL and 3.954 Log10CFU/mL
Mycoplasma pneumoniae; compound 16C 80 mg/kg IM twice daily 4 d, 96 h
  microbial reduction in BALF: 2.68 log10 CFU/mL
Mycoplasma pneumoniae; compound 16C 80 mg/kg IM twice daily 4 d, 192 h
  microbial reduction in BALF: 2.65 log10 CFU/mL
Mycoplasma pneumoniae; compound 16C 80 mg/kg IM, 96 h
  MPcounts in BALF (AV): 3.141 Log10CFU/mL
  MPcounts in BALF: 3.314 Log10CFU/mL and 3.255 Log10CFU/mL and 3.244 Log10CFU/mL and 3.15 Log10CFU/mL and 2.656 Log10CFU/mL and 3.223 Log10CFU/mL
Mycoplasma pneumoniae; [4]
  MPcounts in BALF (AV): 3.173 Log10CFU/mL
  MPcounts in BALF: 3.05 Log10CFU/mL and 3.185 Log10CFU/mL and 3.04 Log10CFU/mL and 3.438 Log10CFU/mL and 3.295 Log10CFU/mL and 3.0308 Log10CFU/mL
IFN-γ; compound 16C 20 mg/kg IM, 96 h
  IFN-γ in BALF (AV): 61.9115 pg/mL
  IFN-γ in BALF: 66.1116 pg/mL and 70.7764 pg/mL and 60.3497 pg/mL and 48.4263 pg/mL and 63.8937 pg/mL
IFN-γ; [2]
  IFN-γ in BALF (AV): 53.7268 pg/mL
  IFN-γ in BALF: 69.6648 pg/mL and 70.9988 pg/mL and 47.7654 pg/mL and 32.8171 pg/mL and 65.2242 pg/mL and 35.8907 pg/mL
IFN-γ; compound 16C 40 mg/kg IM, 96 h
  IFN-γ in BALF (AV): 31.4597 pg/mL
  IFN-γ in BALF: 36.9995 pg/mL and 36.109 pg/mL and 18.2065 pg/mL and 31.1186 pg/mL and 39.6709 pg/mL and 26.6536 pg/mL
IFN-γ; [3]
  IFN-γ in BALF (AV): 43.7114 pg/mL
  IFN-γ in BALF: 35.5746 pg/mL and 45.5493 pg/mL and 40.3832 pg/mL and 54.2951 pg/mL and 42.5204 pg/mL and 43.9456 pg/mL
IFN-γ; compound 16C 80 mg/kg IM, 96 h
  IFN-γ in BALF (AV): 33.085 pg/mL
  IFN-γ in BALF: 42.8939 pg/mL and 46.612 pg/mL and 43.7193 pg/mL and 17.0898 pg/mL and 29.6102 pg/mL and 18.5846 pg/mL
IFN-γ; [4]
  IFN-γ in BALF (AV): 30.1626 pg/mL
  IFN-γ in BALF: 41.5193 pg/mL and 31.3845 pg/mL and 29.0646 pg/mL and 27.0198 pg/mL and 28.7918 pg/mL and 26.4748 pg/mL and 26.8835 pg/mL
[1]; 20mg/kg, time 0
  cell counts, total (AV): 48.3833 n*10^5
  cell counts, 中 (neutrophils) (AV): 42.2036 n*10^5
  cell counts, 巨 (macrophages) (AV): 5.64 n*10^5
  cell counts, 淋 (lymphocytes) (AV): 0.5399 n*10^5
[1]; 20mg/kg, time 96
  cell counts, total (AV): 8.192 n*10^5
  cell counts, 中 (neutrophils) (AV): 1.83 n*10^5
  cell counts, 巨 (macrophages) (AV): 3.157 n*10^5
  cell counts, 淋 (lymphocytes) (AV): 3.205 n*10^5
[1]; 20mg/kg, time 192
  cell counts, total (AV): 2.917 n*10^5
  cell counts, 中 (neutrophils) (AV): 1.486 n*10^5
  cell counts, 巨 (macrophages) (AV): 0.8746 n*10^5
  cell counts, 淋 (lymphocytes) (AV): 0.5558 n*10^5
[1]; 40mg/kg, time 0
  cell counts, total (AV): 47.0528 n*10^5
  cell counts, 中 (neutrophils) (AV): 40.6758 n*10^5
  cell counts, 巨 (macrophages) (AV): 4.508 n*10^5
  cell counts, 淋 (lymphocytes) (AV): 1.869 n*10^5
[1]; 40mg/kg, time 96
  cell counts, total (AV): 7.083 n*10^5
